Assay results published in US20170029388A1, “Treatment of Neurodegenerative Diseases with Asparagine Endopeptidase (AEP) Inhibitors and Compositions Related Thereto” (INTERCONTINENTAL GREAT BRANDS LLC, priority 2014, published 2017).

Key:
[1] = PAMPA
[2] = test system: CYP3A; assay: CYP inhibition screening, CYP3A-Testosterone; assay type: in vitro ADME
[3] = test system: cleavage of the amyloid precursor protein (APP); assay: OGD in primary cortical neurons, APP cleavage (immunoblot); assay type: cell-based
Procedure: A. AEP activity, measured in primary neuronal cultures with 5 μM Cbz-Ala-Ala-Asn-AMC (x-axis denotes neurons were treated with 0.1 μM or 1.0 μM specified compound). B. Caspase activity, measured in primary neuronal cultures with 5 μM Ac-Asp-Glu-Val-Asp-AMC. C. Cathepsin activity, measured in primary neuronal cultures with 5 μM D-Val-Leu-Lys-AMC. D. Inhibition of APP cleavage. Lysates of primary cortical neurons pre-incubated with compounds for 30 min, underwent OGD for 4 hrs, were reperfused for 18 hrs (normoxia neurons remained at normoxic conditions). E. APP can be cleaved in a dose-dependent manner. Lysates of primary cortical neurons pre-incubated with compounds for 30 min, underwent OGD for 4 hrs, were reperfused for 18 hrs (normoxia neurons remained at normoxic conditions).
Depriving cells of oxygen and glucose is a cellular model that is employed to trigger acidosis in cultured cells. The efficacy of the compounds in a cellular model of oxygen-glucose deprivation (OGD) was determined in an effort to mimic the effects of stroke in primary cultured neurons. As a result of depriving neurons of oxygen and glucose-containing medium, AEP activity was doubled (FIG. 7A, ‘DMSO-Norm’ compared to ‘DMSO-OGD’), while Caspase-3 and Cathepsin activities remained relatively unchanged. […] Cleavage of APP is observed in response to only DMSO treatment (FIG. 7D, lane 2), and it appears that upon the treatment of 1 μM of compounds 10, 11, and 12, and just 0.1 μM of compounds 31, 38 and 64, the cleavage was blocked, presumably due to AEP inhibition.
Compounds were pre-incubated with primary culture neurons, DIV13, for 30 min. The medium was exchanged for glucose-free DMEM and neurons were de-gased and incubated at 37° C., 95% N2/5% CO2 for 4 hrs with compounds. The medium was exchanged for DMEM and supplemented with compounds, then neurons were reperfused for 18 hrs under normoxic conditions. The neuronal lysates were prepared for AEP, Caspase-3 and Cathepsin assays. Moreover, immunoblotting analysis was conducted with the neuronal lysates using anti-APP, anti-AEP antibodies.

[4] = target: CYP3A4 (Homo sapiens, UniProt P08684); assay: CYP inhibition screening, CYP3A4-Midazolam; assay type: in vitro ADME
[5] = target: CYP2C19 (Homo sapiens, UniProt P33261); assay: CYP inhibition screening, CYP2C19; assay type: in vitro ADME
[6] = test system: Caco-2 monolayer; assay: Caco-2 monolayer permeability screen; assay type: in vitro ADME
Procedure: To explore the in vitro ADME profiles of the compounds, additional tests were conducted.

[7] = Liver microsomal stability, human; conditions: human liver microsomes
[8] = Liver microsomal stability, mouse; conditions: mouse liver microsomes
[9] = target: CYP2D6 (Homo sapiens, UniProt P10635); assay: CYP inhibition screening, CYP2D6; assay type: in vitro ADME
[10] = target: T1, CYP1A2 (Homo sapiens, UniProt P05177); assay: CYP inhibition screening, CYP1A2; assay type: in vitro ADME
T1 sequence (P05177 1-516): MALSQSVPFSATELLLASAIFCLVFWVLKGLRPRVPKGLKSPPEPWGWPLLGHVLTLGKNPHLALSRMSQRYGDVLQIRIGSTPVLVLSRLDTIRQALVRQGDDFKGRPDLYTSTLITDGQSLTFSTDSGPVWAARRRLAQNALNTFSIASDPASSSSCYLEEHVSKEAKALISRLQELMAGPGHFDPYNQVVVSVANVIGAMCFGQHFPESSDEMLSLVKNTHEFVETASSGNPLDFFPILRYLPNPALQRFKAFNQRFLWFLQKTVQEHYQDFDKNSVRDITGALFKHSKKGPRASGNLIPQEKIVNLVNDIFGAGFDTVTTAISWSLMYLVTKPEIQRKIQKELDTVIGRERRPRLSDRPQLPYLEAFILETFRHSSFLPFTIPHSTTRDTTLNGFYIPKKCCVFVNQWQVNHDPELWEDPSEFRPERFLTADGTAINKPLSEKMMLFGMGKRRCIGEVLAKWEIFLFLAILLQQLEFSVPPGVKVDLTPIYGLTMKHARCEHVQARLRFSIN

[11] = target: CYP2C9 (Homo sapiens, UniProt P11712); assay: CYP inhibition screening, CYP2C9; assay type: in vitro ADME
[12] = target: T2, Caspase-3 (Homo sapiens, UniProt P42574); assay: Caspase-3 enzymatic assay (specificity); assay type: biochemical
T2 construct: purchased Millipore
Procedure: (§1) Purified recombinant enzyme was incubated with various concentrations of inhibitor in appropriate assay buffers in the presence of increasing concentrations of inhibitor. The formation of fluorescent product was monitored in duplicate reactions and the data was fit to appropriate equations to calculate the IC50 values.
(§2) To identify small-molecule inhibitors of AEP, a high-throughput screen was designed in conjunction with the Emory Chemical Biology Discovery Center. The screen incorporated mouse kidney lysates to assay a 54,384 compound library. […] Additional structural analysis and grouping allowed the compounds to be sorted into 8 distinct backbone families. […] The specificity of the compounds was also determined using four major cysteine proteases (FIG. 2).
(§3) Caspase-3 and 8 —The enzyme was pre-incubated with inhibitor in assay buffer (100 mM HEPES pH 7.4, 0.1% CHAPS, 10% Sucrose) for 10 min at 37° C. The reaction was initiated upon addition of 25 μM substrate (Ac-Asp-Glu-Val-Asp-AMC (Bachem)).

[13] = target: Cathepsin-L (Homo sapiens, UniProt P07711); assay: Cathepsin-L enzymatic assay (specificity); assay type: biochemical
Procedure: as §1, §2
Cathepsin-L—100 nM enzyme was pre-incubated with inhibitor in assay buffer (100 mM Sodium Acetate pH 5.5, 1 mM EDTA) for 10 min at 37° C. The reaction was initiated upon addition of 25 μM substrate (D-Val-Leu-Lys-AMC (Bachem)).

[14] = target: T3, Caspase-8 (Homo sapiens, UniProt Q14790); assay: Caspase-8 enzymatic assay (specificity); assay type: biochemical
T3 construct: purchased Millipore
Procedure: as §1, §2, §3

[15] = target: T4, Cathepsin-S (Homo sapiens, UniProt P25774); assay: Cathepsin-S enzymatic assay (specificity); assay type: biochemical
T4 construct: purchased Athens Research and Technology
Procedure: as §1, §2
Cathepsin-S—100 nM enzyme was pre-incubated with inhibitor in assay buffer (100 mM NaH2PO4 pH 6.5, 100 mM NaCl) for 10 min at 37° C. The reaction was initiated upon addition of 25 μM substrate (Boc-Val-Leu-Lys-AMC (Bachem)).

[16] = target: T5, purified human AEP (Homo sapiens, UniProt Q99538); assay: AEP enzymatic assay with purified active enzyme (IC50); assay type: biochemical; conditions: purified recombinant enzyme; read-out: IC50 toward AEP
T5 construct: tested with purified active AEP, IC50 values for the top 8 candidates were found; purchased Sino Biological
T5 sequence (Q99538 18-323 limits assumed): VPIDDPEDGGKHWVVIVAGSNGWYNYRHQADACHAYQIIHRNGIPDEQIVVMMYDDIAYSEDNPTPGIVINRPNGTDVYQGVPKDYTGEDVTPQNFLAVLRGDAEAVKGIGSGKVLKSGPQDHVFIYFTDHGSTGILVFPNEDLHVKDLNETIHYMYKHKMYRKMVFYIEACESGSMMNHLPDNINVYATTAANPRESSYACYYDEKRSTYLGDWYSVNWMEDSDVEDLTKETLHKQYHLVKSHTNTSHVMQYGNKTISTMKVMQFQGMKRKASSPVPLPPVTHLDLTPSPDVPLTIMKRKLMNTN
Procedure: FIG. 1 illustrates a high-throughput screening scheme. […] The hits were validated further with purified human AEP, and promising compounds were categorized into 8 groups. Compounds from each group were tested and the cytotoxicity and specificity were determined.
as §1, §2
AEP—50 nM enzyme was pre-incubated with inhibitor in assay buffer (50 mM Sodium Citrate pH 5.5, 0.1% CHAPS, 60 mM Na2HPO4, 1 mM EDTA) for 10 min at 37° C. The reaction was initiated upon addition of 10 μM Cbz-Ala-Ala-Asn-AMC (Bachem)).

[17] = target: T6, AEP (Homo sapiens, UniProt Q99538); assay: DTT reversibility assay; assay type: biochemical; conditions: 5x IC50 of compound, 10 mM DTT or L-cysteine
T6 construct: tested with purified active AEP, IC50 values for the top 8 candidates were found; purchased Sino Biological
T6 sequence (Q99538 18-323 limits assumed): T5 sequence (Q99538 18-323 limits assumed)
Procedure: AEP was reacted with specified inhibitor, after 15 min 10 mM DTT or L-cysteine was added to the reaction and the fluorescent signal was read for an additional 15 min. At the end of the second 15 min incubation, the percentage of product formed in the presence of each compound was determined in comparison to the DMSO control reaction.
Although it is not intended that embodiments of this disclosure be limited by any particular mechanism, to gain additional insight into the mechanism utilized by the inhibitors for abrogation of AEP activity, their reversibility in the presence of free thiols was determined. The addition of a strong reducing agent, such as DTT, or a weaker reducing agent, L-cysteine, to an inhibited reaction can be used to out-compete the inhibitory agent and restore catalytic activity to an enzyme with an active-site thiol residue. Here, a similar approach was used by adding a reducing agent, either DTT or L-cysteine, to a reaction, in which AEP had been incubated with a specified inhibitor, in an attempt to reverse the effects of the inhibitor. […] For compounds BB1 and 38, this increase in enzymatic activity may be due to the reduction of a disulfide linkage between the inhibitor and the enzyme, since these compounds contain thiols. Compound 10 contains a thiocyanate and may undergo nucleophilic attack by the enzyme's active-site thiolate to form a thioimidate enzyme-inhibitor complex. Under acidic conditions, this complex is reducible by either a strong reducing agent, such as DTT, or the weaker L-cysteine.
Simultaneously, 10 mM (final concentration) dithiothreitol (DTT) or L-cysteine was added to each reaction and incubated for an additional 15 min. At the end of the second 15 min incubation time, the fluorescence was measured for each sample. The amount of product formed in the presence of DMSO was used to determine the percentage of AEP activity in the presence of each drug.

[18] = target: T7, AEP in human B lymphoblastoid Pala cells (Homo sapiens, UniProt Q99538); assay: IC50 assays in intact Pala cells; assay type: cell-based; conditions: 2 hr incubation, residual AEP activity in lysate
T7 construct: human B lymphoblastoid pala cells, which are rich in endogenous AEP; endogenous in cells; host or cells: Pala cells (human B lymphoblastoid)
Procedure: The cells were incubated with inhibitors for 2 hrs then cells washed, harvested and lysed and the residual enzymatic activity was determined. Lysate was normalized by Bradford assay and the experiment was performed in triplicate and the mean results and SEM were plotted.
In an attempt to assess the activity of the compounds in intact cells, the compounds were incubated with human B lymphoblastoid pala cells, which are rich in endogenous AEP and have been used for inhibiting AEP in cellular assay.
Human B Lymphoblastoid Pala cells, which express high concentrations of AEP, were cultured in RPMI-1640, supplemented with 10% FBS, 2 mM L-Glutamine, 100 units/mL Penicillin, 100 μg/mL Streptomycin. Various concentrations of each compound were incubated with the Pala cells for 2 hr at 37° C. Cells were collected, washed twice with PBS and lysed in Lysis Buffer (20 mM Citric Acid, 60 mM Disodium Hydrogen Orthophosphate, 1 mM EDTA, 0.1% CHAPS, pH 5.8). The protein concentrations were normalized by Bradford assay and lysates were assayed with 5 μ,M Cbz-Ala-Ala-Asn-AMC. […] Data were analyzed with GraFit version 5.0.11 software package.

Chain of CYP2D6 (P10635 whole entry): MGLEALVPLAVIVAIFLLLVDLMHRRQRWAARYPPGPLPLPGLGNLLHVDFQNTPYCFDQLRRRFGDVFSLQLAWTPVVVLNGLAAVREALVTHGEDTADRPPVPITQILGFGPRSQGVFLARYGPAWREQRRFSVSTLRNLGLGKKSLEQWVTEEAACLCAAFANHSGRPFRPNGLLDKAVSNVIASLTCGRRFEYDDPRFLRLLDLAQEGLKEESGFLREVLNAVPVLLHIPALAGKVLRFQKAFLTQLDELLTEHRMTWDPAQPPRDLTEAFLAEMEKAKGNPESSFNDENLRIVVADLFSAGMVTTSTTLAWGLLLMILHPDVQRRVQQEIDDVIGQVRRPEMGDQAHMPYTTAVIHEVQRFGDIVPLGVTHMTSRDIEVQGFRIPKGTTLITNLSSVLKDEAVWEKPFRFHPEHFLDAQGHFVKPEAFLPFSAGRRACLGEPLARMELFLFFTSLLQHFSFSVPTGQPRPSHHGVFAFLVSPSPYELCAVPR
Chain of CYP3A4 (P08684 whole entry): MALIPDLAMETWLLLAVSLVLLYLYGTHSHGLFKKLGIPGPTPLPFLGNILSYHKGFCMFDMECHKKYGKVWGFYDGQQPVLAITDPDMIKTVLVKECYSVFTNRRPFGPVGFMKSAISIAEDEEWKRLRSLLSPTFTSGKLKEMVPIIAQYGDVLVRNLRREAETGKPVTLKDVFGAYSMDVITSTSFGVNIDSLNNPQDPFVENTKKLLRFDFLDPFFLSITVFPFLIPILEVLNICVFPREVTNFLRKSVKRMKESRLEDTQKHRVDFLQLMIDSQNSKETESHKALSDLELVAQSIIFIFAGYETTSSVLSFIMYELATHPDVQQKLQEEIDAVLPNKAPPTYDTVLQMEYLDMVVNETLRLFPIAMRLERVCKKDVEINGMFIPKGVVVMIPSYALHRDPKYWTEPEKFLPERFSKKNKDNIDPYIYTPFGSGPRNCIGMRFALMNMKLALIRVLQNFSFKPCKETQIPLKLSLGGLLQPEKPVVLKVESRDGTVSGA
Chain of CYP2C19 (P33261 whole entry): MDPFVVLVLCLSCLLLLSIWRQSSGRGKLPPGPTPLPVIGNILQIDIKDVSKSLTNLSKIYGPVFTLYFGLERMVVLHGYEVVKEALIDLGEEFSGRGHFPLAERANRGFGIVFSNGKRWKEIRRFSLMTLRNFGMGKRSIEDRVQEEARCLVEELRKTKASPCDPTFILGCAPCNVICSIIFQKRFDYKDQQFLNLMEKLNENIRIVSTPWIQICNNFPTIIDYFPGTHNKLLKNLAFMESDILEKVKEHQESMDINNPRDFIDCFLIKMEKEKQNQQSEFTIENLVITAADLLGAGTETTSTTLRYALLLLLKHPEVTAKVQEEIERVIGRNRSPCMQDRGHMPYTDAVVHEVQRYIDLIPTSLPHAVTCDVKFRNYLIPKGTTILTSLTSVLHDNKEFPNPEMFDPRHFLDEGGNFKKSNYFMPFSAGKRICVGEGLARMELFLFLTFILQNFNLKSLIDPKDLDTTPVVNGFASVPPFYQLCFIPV
Chain of CYP2C9 (P11712 whole entry): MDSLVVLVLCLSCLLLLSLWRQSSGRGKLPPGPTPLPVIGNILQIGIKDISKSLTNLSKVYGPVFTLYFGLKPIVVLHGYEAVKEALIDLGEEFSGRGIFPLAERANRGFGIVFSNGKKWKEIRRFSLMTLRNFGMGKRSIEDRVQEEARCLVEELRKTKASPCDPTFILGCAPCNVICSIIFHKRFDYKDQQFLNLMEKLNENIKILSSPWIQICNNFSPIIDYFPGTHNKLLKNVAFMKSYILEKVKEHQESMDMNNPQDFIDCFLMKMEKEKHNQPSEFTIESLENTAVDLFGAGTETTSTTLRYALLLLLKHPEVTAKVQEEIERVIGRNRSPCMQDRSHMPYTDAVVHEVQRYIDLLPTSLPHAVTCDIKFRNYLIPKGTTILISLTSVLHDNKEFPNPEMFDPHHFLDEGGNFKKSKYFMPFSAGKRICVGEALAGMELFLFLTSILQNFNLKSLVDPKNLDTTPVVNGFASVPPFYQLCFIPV
T3 sequence (Q14790 217-374 limits assumed, species assumed): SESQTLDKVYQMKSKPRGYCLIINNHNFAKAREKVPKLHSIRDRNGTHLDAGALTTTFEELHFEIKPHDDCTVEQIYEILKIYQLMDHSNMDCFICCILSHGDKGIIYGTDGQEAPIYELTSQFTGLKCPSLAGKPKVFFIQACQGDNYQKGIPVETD
T3 sequence (Q14790 385-479 limits assumed, species assumed): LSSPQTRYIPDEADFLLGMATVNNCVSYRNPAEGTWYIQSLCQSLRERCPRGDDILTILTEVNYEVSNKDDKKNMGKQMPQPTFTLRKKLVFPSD
T2 sequence (P42574 29-175 limits assumed, species assumed): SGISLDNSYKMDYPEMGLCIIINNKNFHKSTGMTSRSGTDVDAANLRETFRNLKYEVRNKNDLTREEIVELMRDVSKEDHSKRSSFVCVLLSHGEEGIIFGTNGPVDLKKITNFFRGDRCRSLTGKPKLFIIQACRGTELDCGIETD
T2 sequence (P42574 176-277 limits assumed, species assumed): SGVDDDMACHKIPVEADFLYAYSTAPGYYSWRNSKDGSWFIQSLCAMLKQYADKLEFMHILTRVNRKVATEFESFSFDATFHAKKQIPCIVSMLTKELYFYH
T4 sequence (P25774 115-331): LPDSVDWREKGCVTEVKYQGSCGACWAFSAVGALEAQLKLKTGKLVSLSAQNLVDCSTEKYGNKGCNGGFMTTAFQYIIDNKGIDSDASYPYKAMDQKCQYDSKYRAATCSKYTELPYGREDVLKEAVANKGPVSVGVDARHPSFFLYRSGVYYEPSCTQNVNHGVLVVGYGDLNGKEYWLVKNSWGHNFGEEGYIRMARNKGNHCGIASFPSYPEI
Chain of Cathepsin-L (P07711 114-333, species assumed): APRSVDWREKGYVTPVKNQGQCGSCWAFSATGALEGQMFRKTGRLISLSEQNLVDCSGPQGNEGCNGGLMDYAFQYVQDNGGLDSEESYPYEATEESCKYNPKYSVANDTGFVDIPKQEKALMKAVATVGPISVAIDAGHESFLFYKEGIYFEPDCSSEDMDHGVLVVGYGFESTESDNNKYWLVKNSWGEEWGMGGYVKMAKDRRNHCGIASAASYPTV

Structure (SMILES)	CYP inhibition, CYP3A-Testosterone ([2]; test concentration 3 μM)	CYP inhibition, CYP3A-Testosterone ([2]; test concentration 10 μM)	cleavage of APP after OGD ([3]; 0.1 μM compound)	CYP inhibition, CYP3A4-Midazolam ([4]; test concentration 3 μM)	CYP inhibition, CYP3A4-Midazolam ([4]; test concentration 10 μM)	CYP inhibition, CYP2C19 ([5]; test concentration 3 μM)	CYP inhibition, CYP2C19 ([5]; test concentration 10 μM)	A -> B Papp ([6]; Caco-2)	B -> A Papp ([6]; Caco-2)	CYP inhibition, CYP2D6 ([9]; test concentration 3 μM)	CYP inhibition, CYP2D6 ([9]; test concentration 10 μM)	CYP inhibition, CYP1A2 ([10]; test concentration 3 μM)	CYP inhibition, CYP1A2 ([10]; test concentration 10 μM)	CYP inhibition, CYP2C9 ([11]; test concentration 3 μM)	CYP inhibition, CYP2C9 ([11]; test concentration 10 μM)	other results
COc1ccc(N2CCN(C(c3ccc(N(C)C)cc3)c3nnnn3C(C)(C)C)CC2)cc1 (stereo not shown) [Compound 31]	2.5%	0.7%	blocked	−0.9%	18.1%	37.7%	55.7%	19.3 10^−6 cm · s^−1	17.4 10^−6 cm · s^−1	9.9%	1.4%	13.5%	10.3%	47.8%	69.2%	Pe [1]: <LLOQ; Caco-2 permeability (in words) [6]: highly permeable; RE ([6]; Caco-2): 0.9; Mean Remaining Parent (NADPH-free) [7]: 75%; Mean Remaining Parent (with NADPH) ([7]; 30 min of incubation): 12%; Mean Remaining Parent (NADPH-free) [8]: 86%; Mean Remaining Parent (with NADPH) [8]: 16%
CCN(CC)c1ccc(CN2CCc3nc(C)[nH]c(=O)c3C2)c(OC)c1 [Compound 64]	1.5%	−0.1%	blocked	0.6%	10.1%	31.6%	20.4%	<LLOQ	<LLOQ	34.6%	58.3%	23.7%	22.2%	4.6%	7.9%	selectivity for AEP over Caspase-3 [12]: about 6 fold; selectivity for AEP over Cathepsin-L [13]: over 40 fold; selectivity for AEP over Caspase-8 [14]: over 40 fold; selectivity for AEP over Cathepsin-S [15]: over 40 fold; IC50 [16]: 2370 nM
N#CSc1cnc(N)s1 [Compound 10]	–	–	–	–	–	–	–	–	–	–	–	–	–	–	–	AEP activity after addition of reducing agent (reversibility) [17]: regained a substantial amount of activity; dose dependence of APP cleavage after OGD [3]: dose-dependent decrease; cleavage of APP after OGD ([3]; 1 μM compound): blocked; IC50 in intact Pala cells [18]: slightly larger IC50 values
